Results as given in patent publication US20160046618A1, “Cyclopropyl Fused Thiazin-2-Amine Compounds as Beta-Secretase Inhibitors and Methods of Use” (AMGEN INC., priority 2014, published 2016).
Like-named read-outs stand apart in the source and are kept apart here.

Columns and labels:
human recombinant BACE1 = human recombinant BACE1 (Homo sapiens (Human), UniProt P56817); test: In vitro enzymatic BACE1 FRET assay; assay type: biochemical; details: read-out: IC50 IP (μM) BACE1 enzyme
Method: (§1) These recombinant proteins were further purified using Ni-NTA affinity chromatography (Qiagen). […] This assay is effectively started by the addition of FRET substrate (50 nM) and the combination is incubated for one hour. The FRET assay is terminated by addition of Tris buffer, which raises the pH to neutrality, and the fluorescence is determined. The FRET substrate is a peptide with commercially available fluorophore and quencher, on opposite sides of the BACE cleavage site. Proteolytic cleavage of the FRET substrate releases quenching of fluorescence (excitation 488 nm and emission 590 nm).

human recombinant BACE2 = human recombinant BACE2 (Homo sapiens (Human), UniProt Q9Y5Z0); test: In vitro enzymatic BACE2 FRET assay; assay type: biochemical; details: read-out: IC50 IP (μM) BACE2 enzyme
human recombinant BACE2, sequence (Q9Y5Z0 63-518): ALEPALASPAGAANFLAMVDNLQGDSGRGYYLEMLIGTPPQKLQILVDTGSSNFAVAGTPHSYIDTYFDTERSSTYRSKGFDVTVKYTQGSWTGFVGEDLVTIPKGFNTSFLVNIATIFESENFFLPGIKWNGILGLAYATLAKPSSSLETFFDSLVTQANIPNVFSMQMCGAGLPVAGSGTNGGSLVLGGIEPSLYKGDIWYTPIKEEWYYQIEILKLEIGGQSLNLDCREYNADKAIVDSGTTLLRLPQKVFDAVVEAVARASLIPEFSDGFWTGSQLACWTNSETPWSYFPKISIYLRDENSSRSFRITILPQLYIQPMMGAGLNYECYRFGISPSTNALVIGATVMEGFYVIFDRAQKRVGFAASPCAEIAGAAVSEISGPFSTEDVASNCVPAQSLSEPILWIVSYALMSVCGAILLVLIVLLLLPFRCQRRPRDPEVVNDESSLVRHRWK
Method: as §1

[1] = tested on: Aβ40 in conditioned medium of cells stably expressing Amyloid Precursor Protein (APP); test: In vitro BACE-1 cell-based assay (Aβ40 sandwich ELISA); details: read-out: IC50 IP (μM) BACE1 cell
Method: In Vitro BACE-1 Cell-Based Assay
The cell-based assay measures inhibition or reduction of Aβ40 in conditioned medium of test compound treated cells expressing amyloid precursor protein. Cells stably expressing Amyloid Precursor Protein (APP) were plated at a density of 40K cells/well in 96 well plates (Costar). The cells were cultivated for 24 hours at 37° C. and 5% CO2 in DMEM supplemented with 10% FBS. The test compounds were then added to cells in 10-point dose response concentrations with the starting concentration being either 100 μM or 10 μM. The compounds were diluted from stock solutions in DMSO and the final DMSO concentration of the test compounds on cells was 0.1%. After 24 h of incubation with the test compounds the supernatant conditioned media was collected and the Aβ40 levels were determined using a sandwich ELISA. The IC50 of the compound was calculated from the percent of control or percent inhibition of Aβ40 as a function of the concentration of the test compound.
The sandwich ELISA to detect Aβ40 was performed in 96 well microtiter plates, which were pre-treated with goat anti-rabbit IgG (Pierce). The capture and detecting antibody pair that were used to detect Aβ40 from cell supernatants were affinity purified pAb40 (Biosource) and biotinylated 6E10 (Signet Labs Inc.), respectively. The optimal concentration for the pAb40 antibody was 3 μg/ml in Superblock/TBS (Pierce) that was supplemented with 0.05% Tween 20 (Sigma). […] Cellular supernatants were incubated with the capture antibody for 3 h at 4° C., followed by 3 wash steps in TBS-tween (0.05%). The detecting antibody incubation was for 2 h at 4° C., again followed by the wash steps as described previously. The final readout of the ELISA is Time-Resolved Fluorescence (counts per minute) using Delfia reagents Streptavidin-Europium and Enhancement solutions (Perkin Elmer) and the Victor 2 multilabel counter (Perkin Elmer).

Recombinant Cat D = Recombinant Cat D (Homo sapiens (Human), UniProt P07339); test: In vitro enzymatic Cathepsin D (Cat D) FRET assay; assay type: biochemical; details: read-out: IC50 IP (μM) CatD
Recombinant Cat D, sequence (P07339 65-412): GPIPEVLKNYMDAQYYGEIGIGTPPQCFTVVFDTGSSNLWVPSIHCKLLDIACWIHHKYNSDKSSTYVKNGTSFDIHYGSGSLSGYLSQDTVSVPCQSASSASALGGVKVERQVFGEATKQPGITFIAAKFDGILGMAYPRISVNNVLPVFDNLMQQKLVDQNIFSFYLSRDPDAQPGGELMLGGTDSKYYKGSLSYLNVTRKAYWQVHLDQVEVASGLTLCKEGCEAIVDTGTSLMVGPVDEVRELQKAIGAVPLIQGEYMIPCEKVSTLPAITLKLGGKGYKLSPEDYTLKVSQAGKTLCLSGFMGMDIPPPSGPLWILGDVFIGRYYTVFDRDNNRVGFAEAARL
Method: In Vitro Enzymatic Cathepsin D (Cat D) FRET (Fluorescence Resonance Energy Transfer) Assay
Recombinant Cat D was expressed in CHO cells. The assay buffer for CathepsinD is 0.05 M citrate pH 3.5, 10% DMSO final, 5 mM CHAPS. […] The assays are effectively started by the addition of different FRET substrates (20 nM for Cat D) and the combination is incubated for one hour. The FRET assay is terminated with by addition of Tris buffer, which raises the pH to neutrality, and the fluorescence is determined. The FRET substrate is a peptide with commercially available fluorophore and quencher, on opposite sides of the BACE cleavage site. The Cat D substrate peptide sequence is based on sequence #1 of Table 1 from Gulnik et al. FEBS Letters v413 p 379-384 1997. Proteolytic cleavage of the FRET substrate releases quenching of fluorescence (Cat D excitation 500 nm and emission 580 nm).

human recombinant BACE1, sequence (P56817 46-501): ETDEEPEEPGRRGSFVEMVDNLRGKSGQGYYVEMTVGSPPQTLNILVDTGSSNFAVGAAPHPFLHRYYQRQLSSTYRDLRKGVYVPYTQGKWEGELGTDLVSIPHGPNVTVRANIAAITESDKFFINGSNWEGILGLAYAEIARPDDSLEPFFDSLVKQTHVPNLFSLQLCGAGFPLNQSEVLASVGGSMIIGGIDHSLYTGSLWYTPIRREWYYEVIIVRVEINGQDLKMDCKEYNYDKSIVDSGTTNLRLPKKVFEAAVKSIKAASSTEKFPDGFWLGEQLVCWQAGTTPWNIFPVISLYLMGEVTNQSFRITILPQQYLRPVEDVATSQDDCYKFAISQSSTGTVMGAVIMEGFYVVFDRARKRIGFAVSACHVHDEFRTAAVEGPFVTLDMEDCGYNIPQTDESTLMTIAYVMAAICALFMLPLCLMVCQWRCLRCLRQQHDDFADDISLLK

Compound | IC50 (human recombinant BACE1) | IC50 (human recombinant BACE2) | IC50 [1] | IC50 (Recombinant Cat D) | IC50 (human recombinant BACE1; BACE1 FRET enzyme assay) | IC50 (human recombinant BACE2; BACE2 FRET enzyme assay) | IC50 ([1]; BACE1 cell-based assay) | IC50 (Recombinant Cat D; Cathepsin D FRET enzyme assay)
C#CCOc1cnc2c(Nc3ccc(F)c([C@@]4(CF)N=C(N)S[C@@]5(c6c[nH]nn6)C[C@@H]45)c3)nccc2n1 [Example 960, N-(3-((1S,5S,6S)-3-amino-5-(fluoromethyl)-1-(1H-1,2,3-triazol-4-yl)-2-thia-4-azabicyclo[4.1.0]hept-3-en-5-yl)-4-fluorophenyl)-2-(2-propyn-1-yloxy)pyrido[3,4-b]pyrazin-5-amine] | 0.000507 µM | 0.00422 µM | 0.00624 µM | > 400 µM | – | – | – | –
COCCOc1cnc2c(Nc3ccc(F)c([C@@]4(CF)N=C(N)S[C@@]5(COC)C[C@H]54)c3)ncnc2c1 [Example 947, N-(3-((1S,5S,6S)-3-amino-5-(fluoromethyl)-1-(methoxymethyl)-2-thia-4-azabicyclo[4.1.0]hept-3-en-5-yl)-4-fluorophenyl)-7-(2-methoxyethoxy)pyrido[3,2-d]pyrimidin-4-amine] | 0.0282 µM | 0.519 µM | 0.0337 µM | 595 µM | – | – | – | –
C[C@H](Oc1cnc2c(Nc3cc(F)c(F)c([C@@]4(C)N=C(N)S[C@@]5(C(F)F)C[C@@H]45)c3)nccc2n1)c1ncco1 [Example 892, N-(3-((1S,5S,6S)-3-amino-1-(difluoromethyl)-5-methyl-2-thia-4-azabicyclo[4.1.0]hept-3-en-5-yl)-4,5-difluorophenyl)-2-((1 S)-1-(1,3-oxazol-2-yl)ethoxy)pyrido[3,4-b]pyrazin-5-amine] | 0.00278 µM | 0.848 µM | 0.056 µM | 873 µM | – | – | – | –
CC(F)(F)COc1cnc2c(Nc3cc(F)c(F)c([C@@]4(C)N=C(N)S[C@@]5(C(F)F)C[C@@H]45)c3)nccc2n1 [Example 872, N-(3-((1S,5S,6S)-3-amino-1-(difluoromethyl)-5-methyl-2-thia-4-azabicyclo[4.1.0]hept-3-en-5-yl)-4,5-difluorophenyl)-2-(2,2-difluoropropoxy)pyrido[3,4-b]pyrazin-5-amine] | 0.0193 µM | 0.441 µM | 2.66 µM | 239 µM | – | – | – | –
COC[C@]12C[C@H]1[C@@](C)(c1cc(NC(=O)c3cnc(OCC4CC(F)(F)C4)cn3)cc(F)c1F)N=C(N)S2 [Example 1026, N-(3-((1S,5S,6S)-3-amino-1-(methoxymethyl)-5-methyl-2-thia-4-azabicyclo[4.1.0]hept-3-en-5-yl)-4,5-difluorophenyl)-5-((3,3-difluorocyclobutyl)methoxy)-2-pyrazinecarboxamide] | 0.00496 µM | 0.115 µM | 0.0936 µM | 475 µM | – | – | – | –
COC[C@@]12SC(N)=N[C@](C)(c3cc(Nc4ncnc5cc(C#N)cnc45)ccc3F)[C@@H]1C2(F)F [Example 709, 4-((3-((1S,5S,6R)-3-amino-7,7-difluoro-1-(methoxymethyl)-5-methyl-2-thia-4-azabicyclo[4.1.0]hept-3-en-5-yl)-4-fluorophenyl)amino)pyrido[3,2-d]pyrimidine-7-carbonitrile] | 0.0092 µM | 0.0257 µM | 0.104 µM | 148 µM | – | – | – | –
C[C@]1(c2cc(Nc3ncnc4cc(C#N)cnc34)cc(F)c2F)N=C(N)S[C@@]2(CO)C[C@H]21 [Example 55, 4-((3-((1S,5S,6S)-3-amino-1-(hydroxymethyl)-5-methyl-2-thia-4-azabicyclo[4.1.0]hept-3-en-5-yl)-4,5-difluorophenyl)amino)pyrido[3,2-d]pyrimidine-7-carbonitrile] | – | – | – | – | 0.00399 µM | 0.014 µM | 0.00457 µM | 227 µM
NC1=N[C@](CF)(c2cc(NC(=O)c3cnc(OCc4ncco4)cn3)ccc2F)[C@@H]2C[C@]2(c2cnco2)S1 [Example 783, N-(3-((1S,5S,6S)-3-amino-5-(fluoromethyl)-1-(1,3-oxazol-5-yl)-2-thia-4-azabicyclo[4.1.0]hept-3-en-5-yl)-4-fluorophenyl)-5-(1,3-oxazol-2-ylmethoxy)-2-pyrazinecarboxamide] | 0.000501 µM | 0.00245 µM | 0.00485 µM | > 400 µM | – | – | – | –

Results, then the molecule that gave them:

IC50 (human recombinant BACE1) | IC50 (human recombinant BACE2) | IC50 [1] | IC50 (Recombinant Cat D) | IC50 (human recombinant BACE1; BACE1 FRET enzyme assay) | IC50 (human recombinant BACE2; BACE2 FRET enzyme assay) | IC50 ([1]; BACE1 cell-based assay) | IC50 (Recombinant Cat D; Cathepsin D FRET enzyme assay) | Compound
0.00195 µM | 0.109 µM | 0.00785 µM | 1220 µM | – | – | – | – | CC#CCOc1cnc2c(Nc3cc(F)c(F)c([C@@]4(C)N=C(N)S[C@@]5(COC)C[C@H]54)c3)nccc2c1 [Example 903, N-(3-((1S,5S,6S)-3-amino-1-(methoxymethyl)-5-methyl-2-thia-4-azabicyclo[4.1.0]hept-3-en-5-yl)-4,5-difluorophenyl)-3-(2-butyn-1-yloxy)-1,7-naphthyridin-8-amine]
0.0389 µM | 0.556 µM | 0.344 µM | 777 µM | – | – | – | – | C#C[C@H](C)Oc1cnc(C(=O)Nc2cc(F)c(F)c([C@@]3(C)N=C(N)S[C@@]4(COC)C[C@H]43)c2)c(C)c1 [Example 650, N-(3-((1S,5S,6S)-3-amino-1-(methoxymethyl)-5-methyl-2-thia-4-azabicyclo[4.1.0]hept-3-en-5-yl)-4,5-difluorophenyl)-3-methyl-5-(((1S)-1-methyl-2-propyn-1-yl)oxy)-2-pyridinecarboxamide]
0.00273 µM | 0.117 µM | 0.0788 µM | 102 µM | – | – | – | – | Cc1nc(OCC(F)(F)F)cnc1C(=O)Nc1cc(F)c(F)c([C@@]2(C)N=C(N)S[C@@]3(C(F)F)C[C@@H]23)c1 [Example 615, N-(3-((1S,5S,6S)-3-amino-1-(difluoromethyl)-5-methyl-2-thia-4-azabicyclo[4.1.0]hept-3-en-5-yl)-4,5-difluorophenyl)-3-methyl-5-(2,2,2-trifluoroethoxy)-2-pyrazinecarboxamide]
0.00421 µM | 0.158 µM | 0.0169 µM | 1460 µM | – | – | – | – | COC[C@]12C[C@H]1[C@@](C)(c1cc(NC(=O)c3cnc(OCC(C)(F)F)cn3)cc(F)c1F)N=C(N)S2 [Example 739, N-(3-((1S,5S,6S)-3-amino-1-(methoxymethyl)-5-methyl-2-thia-4-azabicyclo[4.1.0]hept-3-en-5-yl)-4,5-difluorophenyl)-5-(2,2-difluoropropoxy)-2-pyrazinecarboxamide]
0.00104 µM | 0.00764 µM | 0.0119 µM | > 400 µM | – | – | – | – | C#CCOc1cnc(C(=O)Nc2cc(F)c(F)c([C@@]3(C)N=C(N)S[C@@]4(C#N)C[C@H]43)c2)c(C)c1 [Example 1016, N-(3-((1S,5S,6S)-3-amino-1-cyano-5-methyl-2-thia-4-azabicyclo[4.1.0]hept-3-en-5-yl)-4,5-difluorophenyl)-3-methyl-5-(2-propyn-1-yloxy)-2-pyridinecarboxamide]
0.014 µM | 0.207 µM | 0.0137 µM | > 400 µM | – | – | – | – | COC[C@]12C[C@H]1[C@@](C)(c1cc(NC(=O)c3ncc(OCc4ncco4)cc3C)ccc1F)N=C(N)S2 [Example 644, N-(3-((1S,5S,6S)-3-amino-1-(methoxymethyl)-5-methyl-2-thia-4-azabicyclo[4.1.0]hept-3-en-5-yl)-4-fluorophenyl)-3-methyl-5-(1,3-oxazol-2-ylmethoxy)-2-pyridinecarboxamide]
0.0026 µM | 0.0257 µM | 0.00473 µM | 1710 µM | – | – | – | – | C#CCOc1cnc(C(=O)Nc2cnc(F)c([C@@]3(C)N=C(N)S[C@@]4(COC)C[C@H]43)c2)c(C)n1 [Example 845, N-(5-((1S,5S,6S)-3-amino-1-(methoxymethyl)-5-methyl-2-thia-4-azabicyclo[4.1.0]hept-3-en-5-yl)-6-fluoro-3-pyridinyl)-3-methyl-5-(2-propyn-1-yloxy)-2-pyrazinecarboxamide]
